Measurements from patent US10030047B2 (Hoffmann-La Roche Inc., priority 2015, dated 2018).

Test system: A. baumannii strain ATCC17978
Assay: 50% growth inhibitory concentration (IC50) determination, Iso-Sensitest broth
Assay type: cell-based
Conditions: Acinetobacter baumannii; A. baumannii ATCC17978; Iso-Sensitest medium; OD 600 nm over 16 h; read-out: IC50 ATCC17978
Experimental: The in vitro antimicrobial activity of the compounds was alternatively determined according to the following procedure:
The assay used a 10-points Iso-Sensitest broth medium to measure quantitatively the in vitro activity of the compounds against A. baumannii ATCC 17978.
Stock compounds in DMSO were serially twofold diluted (e.g. range from 50 to 0.097 μM final concentration) in 384 wells microtiter plates and inoculated with 49 μl the bacterial suspension in Iso-Sensitest medium to have a final cell concentration of ˜5×10^(5) CFU/ml in a final volume/well of 50 ul/well. Microtiter plates were incubated at 35±2° C.
Bacterial cell growth was determined with the measurement of optical density at λ=600 nm each 20 minutes over a time course of 16 h.
Growth inhibition was calculated during the logarithmic growth of the bacterial cells with determination of the concentration inhibiting 50% (IC50) and 90% (IC90) of the growth.
Tables 3, 4 and 5 provide the 50% growth inhibitory concentrations (IC50) in micromoles per liter of the compounds of present invention obtained against the A. baumannii strain ATCC17978.

Which IC50 does the source give for `CN1C(=O)[C@H](CCCCN)NC(=O)[C@H](CCC(N)=O)NCc2ccccc2Sc2c(cc(-c3ccccc3)cc2C(F)(F)F)CNC(=O)[C@@H]1Cc1c[nH]c2ccccc12` [Example 155, 3-[(11S,14S,17S)-14-(4-Amino-butyl)-17-(1H-indol-3-ylmethyl)-16-methyl-12,15,18-trioxo-23-phenyl-25-trifluoromethyl-2-thia-10,13,16,19-tetraaza-tricyclo[19.4.0.0*3,8*]pentacosa-1(25),3,5,7,21,23-hexaen-11-yl]-propionamide] here?
Its IC50 is 2700 nM.

How did the IC50 turn out when `CN1C(=O)[C@H](CCCCN)NC(=O)[C@H](CCCN)NCc2ccccc2Sc2c(Cl)cncc2CNC(=O)[C@@H]1Cc1c[nH]c2ccccc12` [Example 158] was run?
Its IC50 is less than 390 nM.

`CN1C(=O)[C@H](CCCCN)NC(=O)[C@H](CCCN)NCc2cccnc2Sc2cnc(Cl)cc2CNC(=O)[C@@H]1Cc1c[nH]c2ccccc12` [Example 159, (7S,10S,13S)— 13-((1H-Indol-3-yl)methyl)-10-(4-aminobutyl)-7-(3-aminopropyl)-18-chloro-12-methyl-6,7,9,10,12,13,15,16-octahydrodipyrido[2,3-b:4′,3′-p][1,5,8,11,14]thiatetraazacycloheptadecine-8,11,14(5H)-trione] was tested. Which IC50 did it give?
Its IC50 is less than 390 nM.

How did the IC50 turn out when `CN1C(=O)[C@H](CCC(N)=O)NC(=O)[C@H](CCCN)NCc2ccccc2Sc2c(cc(-c3ccccc3)cc2C(F)(F)F)CNC(=O)[C@@H]1Cc1c[nH]c2ccccc12` [Example 161, 3-[(11S,14S,17S)-11-(3-Amino-propyl)-17-(1H-indol-3-ylmethyl)-16-methyl-12,15,18-trioxo-23-phenyl-25-trifluoromethyl-2-thia-10,13,16,19-tetraaza-tricyclo[19.4.0.0*3,8*]pentacosa-1(25),3,5,7,21,23-hexaen-14-yl]-propionamide] was run?
Its IC50 is 6800 nM.

Which IC50 does the source give for `CN1C(=O)[C@H](CCCCN)NC(=O)[C@H](CCCN)NCc2ccccc2Sc2c(ccc(Br)c2Cl)CNC(=O)[C@@H]1Cc1c[nH]c2ccccc12` [Example 168, (12S,15S,18S)-15-(4-Amino-butyl)-18-(3-amino-propyl)-5-bromo-4-chloro-12-(1H-indol-3-ylmethyl)-13-methyl-2-thia-10,13,16,19-tetraaza-tricyclo[19.4.0.0*3,8*]pentacosa-1(25),3,5,7,21,23-hexaene-11,14,17-trione] here?
The IC50 was less than 400 nM.

With `CN1C(=O)[C@H](CCCCN)NC(=O)[C@H](CCCN)NCc2ccccc2Sc2c(ccc(-c3ccccc3)c2Cl)CNC(=O)[C@@H]1Cc1c[nH]c2ccccc12` [Example 176, (12S,15S,18S)-15-(4-Amino-butyl)-18-(3-amino-propyl)-4-chloro-12-(1H-indol-3-ylmethyl)-13-methyl-5-phenyl-2-thia-10,13,16,19-tetraaza-tricyclo[19.4.0.0*3,8*]pentacosa-1(25),3,5,7,21,23-hexaene-11,14,17-trione] as the compound, how does the IC50 read?
Its IC50 is 5100 nM.

Which IC50 does the source give for `CN1C(=O)[C@H](CCCCN)NC(=O)[C@H](CCCN)NCc2ccccc2Sc2c(-c3cccnc3)ncc(Cl)c2CNC(=O)[C@@H]1Cc1c[nH]c2ccccc12` [Example 194] here?
Its IC50 is 3300 nM.

How did the IC50 turn out when `CN1C(=O)[C@H](CCCCN)NC(=O)[C@H](CCCN)NCc2ccccc2Sc2c(-c3ccncc3)ncc(Cl)c2CNC(=O)[C@@H]1Cc1c[nH]c2ccccc12` [Example 195] was run?
The IC50 was 3000 nM.

For `COc1cc(-c2ncc(Cl)c3c2Sc2ccccc2CN[C@@H](CCCN)C(=O)N[C@@H](CCCCN)C(=O)N(C)[C@@H](Cc2c[nH]c4ccccc24)C(=O)NC3)ccn1` [Example 196], which IC50 is on record?
Its IC50 is 100 nM.

`CN1C(=O)[C@H](CCCCN)NC(=O)[C@H](CCCN)NCc2cccnc2Sc2ccc(Br)nc2CNC(=O)[C@@H]1Cc1c[nH]c2ccccc12` [Example 197, (7S,10S,13S)-13-((1H-Indol-3-yl)methyl)-10-(4-aminobutyl)-7-(3-aminopropyl)-18-bromo-12-methyl-6,7,9,10,12,13,15,16-octahydrodipyrido[2,3-b:2′,3′-p][1,5,8,11,14]thiatetraazacycloheptadecine-8,11,14(5H)-trione] was tested. Which IC50 did it give?
Its IC50 is 200 nM.

With `CN1C(=O)[C@H](CCCCN)NC(=O)[C@H](CCCN)NCc2ccccc2Sc2c(-c3ccnc(C(F)(F)F)c3)ncc(Cl)c2CNC(=O)[C@@H]1Cc1c[nH]c2ccccc12` [Example 198] as the compound, how does the IC50 read?
The IC50 was 300 nM.

Which IC50 does the source give for `CN1C(=O)[C@H](CCCCN)NC(=O)[C@H](CCCN)NCc2ccccc2Sc2c(N3CCOCC3)ncc(Cl)c2CNC(=O)[C@@H]1Cc1c[nH]c2ccccc12` [Example 201] here?
Its IC50 is 400 nM.

Which IC50 does the source give for `CN1C(=O)[C@H](CCCCN)NC(=O)[C@H](CCCN)NCc2cc(Br)ccc2Sc2c(Cl)cccc2CNC(=O)[C@@H]1Cc1c[nH]c2ccccc12` [Example 206, (12S,15S,18S)-15-(4-Amino-butyl)-18-(3-amino-propyl)-23-bromo-4-chloro-12-(1H-indol-3-ylmethyl)-13-methyl-2-thia-10,13,16,19-tetraaza-tricyclo[19.4.0.0*3,8*]pentacosa-1(25),3,5,7,21,23-hexaene-11,14,17-trione] here?
The IC50 was 1400 nM.

For `CN1C(=O)[C@H](CCCCN)NC(=O)[C@H](CCCN)NCc2cc(-c3ccccc3)ccc2Sc2c(Cl)cccc2CNC(=O)[C@@H]1Cc1c[nH]c2ccccc12` [Example 207, (12S,15S,18S)-15-(4-Amino-butyl)-18-(3-amino-propyl)-4-chloro-12-(1H-indol-3-ylmethyl)-13-methyl-23-phenyl-2-thia-10,13,16,19-tetraaza-tricyclo[19.4.0.0*3,8*]pentacosa-1(25),3,5,7,21,23-hexaene-11,14,17-trione], which IC50 is on record?
Its IC50 is 9000 nM.

`CN1C(=O)[C@H](CCCCN)NC(=O)[C@H](CCCN)NCc2cc(-c3cccnc3)ccc2Sc2c(Cl)cccc2CNC(=O)[C@@H]1Cc1c[nH]c2ccccc12` [Example 208, (12S,15S,18S)-15-(4-Amino-butyl)-18-(3-amino-propyl)-4-chloro-12-(1H-indol-3-ylmethyl)-13-methyl-23-pyridin-3-yl-2-thia-10,13,16,19-tetraaza-tricyclo[19.4.0.0*3,8*]pentacosa-1(25),3,5,7,21,23-hexaene-11,14,17-trione] was tested. Which IC50 did it give?
The IC50 was 12500 nM.

For `Cc1cc(-c2ccc3c(n2)CNC(=O)[C@H](Cc2c[nH]c4ccccc24)N(C)C(=O)[C@H](CCCCN)NC(=O)[C@H](CCCN)NCc2cccnc2S3)ccn1` [Example 215, (7S,10S,13S)-13-((1H-Indol-3-yl)methyl)-10-(4-aminobutyl)-7-(3-aminopropyl)-12-methyl-18-(2-methylpyridin-4-yl)-6,7,9,10,12,13,15,16-octahydrodipyrido[2,3-b:2′,3′-p][1,5,8,11,14]thiatetraazacycloheptadecine-8,11,14(5H)-trione], which IC50 is on record?
Its IC50 is 2000 nM.

How did the IC50 turn out when `CN1C(=O)[C@H](CCCCN)NC(=O)[C@H](CCCN)NCc2cc(-c3ccc(CN)cc3)ccc2Sc2c(Cl)cccc2CNC(=O)[C@@H]1Cc1c[nH]c2ccccc12` [Example 216, (12S,15S,18S)-15-(4-Amino-butyl)-23-(4-aminomethyl-phenyl)-18-(3-amino-propyl)-4-chloro-12-(1H-indol-3-ylmethyl)-13-methyl-2-thia-10,13,16,19-tetraaza-tricyclo[19.4.0.0*3,8*]pentacosa-1(25),3,5,7,21,23-hexaene-11,14,17-trione] was run?
The IC50 was 700 nM.

Which IC50 does the source give for `COc1cc(-c2ccc3c(n2)CNC(=O)[C@H](Cc2c[nH]c4ccccc24)N(C)C(=O)[C@H](CCCCN)NC(=O)[C@H](CCCN)NCc2cccnc2S3)ccn1` [Example 217, (7S,10S,13S)-13-((1H-Indol-3-yl)methyl)-10-(4-aminobutyl)-7-(3-aminopropyl)-18-(2-methoxypyridin-4-yl)-12-methyl-6,7,9,10,12,13,15,16-octahydrodipyrido[2,3-b:2′,3′-p][1,5,8,11,14]thiatetraazacycloheptadecine-8,11,14(5H)-trione] here?
The IC50 was 1000 nM.

`CN1C(=O)[C@H](CCCCN)NC(=O)[C@H](CCCN)NCc2cccnc2Sc2ccc(N3CCOCC3)nc2CNC(=O)[C@@H]1Cc1c[nH]c2ccccc12` [Example 218, (7S,10S,13S)-13-((1H-Indol-3-yl)methyl)-10-(4-aminobutyl)-7-(3-aminopropyl)-12-methyl-18-morpholino-6,7,9,10,12,13,15,16-octahydrodipyrido[2,3-b:2′,3′-p][1,5,8,11,14]thiatetraazacycloheptadecine-8,11,14(5H)-trione] was tested. Which IC50 did it give?
The IC50 was 2000 nM.

With `CN1C(=O)[C@H](CCCCN)NC(=O)[C@H](CCCN)NCc2ccc(Br)cc2Sc2c(Cl)cccc2CNC(=O)[C@@H]1Cc1c[nH]c2ccccc12` [Example 219, (12S,15S,18S)-15-(4-Amino-butyl)-18-(3-amino-propyl)-24-bromo-4-chloro-12-(1H-indol-3-ylmethyl)-13-methyl-2-thia-10,13,16,19-tetraaza-tricyclo[19.4.0.0*3,8*]pentacosa-1(25),3,5,7,21,23-hexaene-11,14,17-trione] as the compound, how does the IC50 read?
Its IC50 is 600 nM.

With `CN1C(=O)[C@H](CCCCN)NC(=O)[C@H](CCCN)NCc2ccc(-c3ccccc3)cc2Sc2c(Cl)cccc2CNC(=O)[C@@H]1Cc1c[nH]c2ccccc12` [Example 220, (12S,15S,18S)-15-(4-Amino-butyl)-18-(3-amino-propyl)-4-chloro-12-(1H-indol-3-ylmethyl)-13-methyl-24-phenyl-2-thia-10,13,16,19-tetraaza-tricyclo[19.4.0.0*3,8*]pentacosa-1(25),3,5,7,21,23-hexaene-11,14,17-trione] as the compound, how does the IC50 read?
Its IC50 is 5800 nM.

`CN1C(=O)[C@H](CCCCN)NC(=O)[C@H](CCCN)NCc2cc(Br)cnc2Sc2ccccc2CNC(=O)[C@@H]1Cc1c[nH]c2ccccc12` [Example 236, (7S,10S,13S)-13-((1H-Indol-3-yl)methyl)-10-(4-aminobutyl)-7-(3-aminopropyl)-3-bromo-12-methyl-6,7,9,10,12,13,15,16-octahydrobenzo[b]pyrido[3,2-p][1,5,8,11,14]thiatetraazacycloheptadecine-8,11,14(5H)-trione] was tested. Which IC50 did it give?
Its IC50 is 3200 nM.
